Data from patent US5576187A (priority 1994, dated 1996).

Tested on: anti-chlorpyrifos monoclonal antibody
Format: binding, mouse

SMILES | relative reactivity: concentration equivalent to 1 ppB of chlorpyrifos in the immunoassay
Cn1c(Cl)c(Cl)cc(Cl)c1=O [N-methyl-3,5,6-trichloro-2-pyridinone] | 75 ppm
CCOP(=O)(Cc1ccc(C)cc1)OCC [diethyl 4-methylbenzylphosphonate] | 50 ppm
